The record followed here is US4200575A, “7[(2-Thiazolyl)-2-(oxoimino)acetamido]cephalosporin derivatives” (Takeda Chemical Industries, Ltd., priority 1977, dated 1980).

Some results are limits rather than exact numbers.

One test relates to P. vulgaris IFO 3988. In words: Minimal inhibitory concentration (M.I.C.), agar dilution method. It counts as cell-based, Proteus vulgaris. Particulars: TSA, inoculum 10^7 /ml. From the text: (§1) (a) Determination of minimal inhibitory concentrations (Tables 1 to 8):
(§2) Procedure: agar dilution method
(In agar dilution the substance is mixed into plates at graded concentrations.)

For a further test, the system named is P. vulgaris GN 4413. The test is described as above. Particulars: TSA, inoculum 10^7 /ml. The test is classed as cell-based, Proteus vulgaris.
Text: as §1, §2

The next test deals with S. marcescens IFO 12648. Described as above. The settings on record: TSA, inoculum 10^7 /ml. It counts as cell-based, Serratia marcescens.
Text: as §1, §2

For the next test, the system named is S. marcescens TN 24. The description is as above. It counts as cell-based, Serratia marcescens. The settings on record: TSA, inoculum 10^7 /ml.
Text: as §1, §2

For a further test, the system named is E. cloacae TN 1282. The test is described as above. The test is classed as cell-based, Enterobacter cloacae. Particulars: TSA, inoculum 10^7 /ml.
Text: as §1, §2

In a further test the test system is K. pneumoniae DT. The test is described as above. Particulars: TSA, inoculum 10^7 /ml. The test is classed as cell-based, Klebsiella pneumoniae.
Text: as §1, §2

The next test deals with K. pneumoniae GN 3835. The test is described as above. The test is classed as cell-based, Klebsiella pneumoniae. Particulars: TSA, inoculum 10^7 /ml.
Text: as §1, §2

A further test has as its system S. aureus 209P. The test is described as above. The test is classed as cell-based, Staphylococcus aureus. Particulars: TSA, inoculum 10^7 /ml.
Text: as §1, §2

The next test concerns S. aureus 1840. The test is described as above. It counts as cell-based, Staphylococcus aureus. The settings on record: TSA, inoculum 10^7 /ml.
Text: as §1, §2

Another test concerns E. coli 0-111. The description is as above. The settings on record: TSA, inoculum 10^7 /ml. It counts as cell-based, Escherichia coli. Summed up: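 MIC against E. coli O-111 was determined by agar dilution.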
In another test the test system is P. rettgeri TN 338. Described as above. It counts as cell-based, Proteus rettgeri. The settings on record: TSA, inoculum 10^7 /ml.
Text: as §1, §2

The test system of another test is P. rettgeri GN4733. The test is described as above. The test is classed as cell-based, Proteus rettgeri. Particulars: TSA, inoculum 10^7 /ml.
Text: as §1, §2

Another test relates to C. freundii GN 1706. The test is described as above. The test is classed as cell-based, Citrobacter freundii. The settings on record: TSA, inoculum 10^7 /ml.
Text: as §1, §2

The subject of a further test is C. freundii GN 99. Described as above. The test is classed as cell-based, Citrobacter freundii. The settings on record: TSA, inoculum 10^7 /ml.
Text: as §1, §2

The next test relates to P. mirabilis GN 4359. Described as above. The test is classed as cell-based, Proteus mirabilis. The settings on record: TSA, inoculum 10^7 /ml.
Text: as §1, §2

The test system of the next test is Escherichia coli 0-111. As to the kind of experiment: Therapeutic effects in infected mice. The test is classed as in vivo, Male mice ICR/SLC. The settings on record: Escherichia coli, 0111, sc, 168 h. The procedure:
The preliminary therapeutic effects of some cephalosporin derivatives of this invention as determined in infected mice were as follows.
Determination of therapeutic effects in infected mice
Test animals: Male mice ICR/SLC
Each compound was administered to a group of 5 animals.
Route of infection: Intraperitoneally infected with Escherichia coli 0-111
Period of observation: 7 days.
Method of administration:
One mg of each test compound was dissolved in 100 ml of sterile physiological saline and a dilution series of the same solution was prepared. These solutions were respectively injected subcutaneously into mice immediately after infection, in a single dose of 0.2 ml each.

The subject of another test is E. coli NIHJ JC-2. In words: Minimal inhibitory concentration (M.I.C.), agar dilution method. It counts as cell-based, Escherichia coli. Particulars: TSA, inoculum 10^7 /ml.
Text: as §1, §2

The test system of another test is E. coli T-7. The description is as above. The settings on record: TSA, inoculum 10^7 /ml. It counts as cell-based, Escherichia coli.
Text: as §1, §2

A further test concerns P. morganii IFO 3168. The description is as above. It counts as cell-based, Proteus morganii. The settings on record: TSA, inoculum 10^7 /ml.
Text: as §1, §2

What is called ED50 is the dose that gives a 50% effect, or the effect in half of the subjects. Read a high ED50 as a need for a large dose.

In the case of `O=C(Cc1cccs1)N[C@@H]1C(=O)N2C(C(=O)[O-])=C(C[n+]3ccccc3)CS[C@H]12` [Cephaloridine, 7-(2-thienylacetamido)-3-(1-pyridyl)methyl-3-cephem-4-carboxylic acid betaine, reference compound], the “minimal inhibitory concentration (M.I.C.)” value is listed as 6.25 with P. vulgaris IFO 3988; above 100 with P. vulgaris GN 4413; above 100 in the test with S. marcescens IFO 12648; above 100 in the test with S. marcescens TN 24; above 100 in the test on E. cloacae TN 1282; 1.56 with K. pneumoniae DT. For the same compound, the “minimal inhibitory concentration (M.I.C.)” value with K. pneumoniae GN 3835 is given as 12.5; in the test with S. aureus 209P it was 0.05; in the test on S. aureus 1840, 0.39; in the test with E. coli 0-111, 1.56; with P. rettgeri TN 338, 1.56; in the test on P. rettgeri GN4733, above 100. Further, the “minimal inhibitory concentration (M.I.C.)” value was above 100 with C. freundii GN 1706; 50 with C. freundii GN 99; 6.25 in the test with P. mirabilis GN 4359; 3.13 in the test on E. coli NIHJ JC-2; above 100 in the test with E. coli T-7; above 100 in the test with P. morganii IFO 3168. Also, in the test on Escherichia coli 0-111, the ED50 worked out at 2 mg/kg.
Turning to `CNC(=O)O/N=C(\C(=O)NC1C(=O)N2C(C(=O)O)=C(COC(N)=O)CSC12)c1csc(=N)[nH]1` (stereo not drawn) [Example II - 3, sodium 7-[2-(2-imino-4-thiazolin-4-yl)-2-methylcarbamoyloximinoacetamido]-3-carbamoyloxymethyl-3-cephem-4-carboxylate (syn-isomer)], the “minimal inhibitory concentration (M.I.C.)” value was determined as 0.05 in the test with P. vulgaris IFO 3988; 50 in the test on P. vulgaris GN 4413; 3.13 in the test with S. marcescens IFO 12648; 6.25 with S. marcescens TN 24; 6.25 with E. cloacae TN 1282; 0.024 in the test on K. pneumoniae DT. Further, the “minimal inhibitory concentration (M.I.C.)” value with K. pneumoniae GN 3835 is 0.1; in the test with S. aureus 209P, 3.13; in the test with S. aureus 1840, 3.13; in the test on E. coli 0-111, 0.024; in the test with P. rettgeri TN 338, at most 0.012; in the test with P. rettgeri GN4733, 0.1. The “minimal inhibitory concentration (M.I.C.)” value with C. freundii GN 1706 was 0.2; in the test with C. freundii GN 99, 0.1; in the test with P. mirabilis GN 4359, 0.05; with E. coli NIHJ JC-2, 0.1; in the test with E. coli T-7, 0.39; in the test with P. morganii IFO 3168, 0.78. Besides, it took a dose of 0.016 mg/kg to reach the 50% effect level with Escherichia coli 0-111 (ED50).
With `CNC(=O)O/N=C(\C(=O)NC1C(=O)N2C(C(=O)O)=C(CSc3nnnn3C)CSC12)c1csc(=N)[nH]1` (stereo not drawn) [Example II - 4, sodium 7-[2-(2-imino-4-thiazolin-4-yl)-2-methylcarbamoyloximinoacetamido]-3-(1-methyl-1H-tetrazol-5-yl)thiomethyl-3-cephem-4-carboxylate (syn-isomer)], the “minimal inhibitory concentration (M.I.C.)” value turned out to be 0.1 in the test on P. vulgaris IFO 3988; 12.5 in the test with P. vulgaris GN 4413; 1.56 with S. marcescens IFO 12648; 0.78 in the test with S. marcescens TN 24; 1.56 in the test on E. cloacae TN 1282; 0.05 in the test with K. pneumoniae DT. In addition, the “minimal inhibitory concentration (M.I.C.)” value in the test with K. pneumoniae GN 3835 is 0.39; in the test on S. aureus 209P it was 1.56; with S. aureus 1840, 1.56; with E. coli 0-111 it was 0.024; in the test with P. rettgeri TN 338, at most 0.012; in the test with P. rettgeri GN4733 it was 0.1. Also, the “minimal inhibitory concentration (M.I.C.)” value with C. freundii GN 1706 worked out at 0.39; in the test on C. freundii GN 99 it was 0.1; with P. mirabilis GN 4359, 0.1; with E. coli NIHJ JC-2 it was 0.2; with E. coli T-7 it was 1.56; with P. morganii IFO 3168, 0.1. In the test on Escherichia coli 0-111, the ED50 is 0.025 mg/kg.
For the compound `CCCCNC(=O)O/N=C(\C(=O)NC1C(=O)N2C(C(=O)O)=C(COC(N)=O)CSC12)c1csc(=N)[nH]1` (stereo not drawn) [Example II - 21, sodium 7-[2-(2-imino-4-thiazolin-4-yl)-2-butylcarbamoyloximinoacetamido]-3-carbamoyloxymethyl-3-cephem-4-carboxylate (syn-isomer)], the “minimal inhibitory concentration (M.I.C.)” value in the test on P. vulgaris IFO 3988 worked out at 0.39; in the test with P. vulgaris GN 4413 it was 50; in the test with S. marcescens IFO 12648 it was 6.25; in the test on S. marcescens TN 24 it was 25; in the test with E. cloacae TN 1282 it was 25; in the test on K. pneumoniae DT it was 0.1. The “minimal inhibitory concentration (M.I.C.)” value with K. pneumoniae GN 3835 is 0.39; in the test with S. aureus 209P, 1.56; in the test with S. aureus 1840, 3.13; with E. coli 0-111 it was 0.05; with P. rettgeri TN 338, at most 0.012; with P. rettgeri GN4733 it was 0.39. Moreover, the “minimal inhibitory concentration (M.I.C.)” value with C. freundii GN 1706 is recorded as 0.78; with C. freundii GN 99, 0.39; in the test with P. mirabilis GN 4359 it was 0.2; in the test with E. coli NIHJ JC-2, 0.39; in the test on E. coli T-7, 3.13; in the test with P. morganii IFO 3168 it was 1.56. The compound further yielded an ED50 in the test on Escherichia coli 0-111 of 0.1 mg/kg.
